Experimental data as given in patent EP0414175A2, “Use of xanthine derivatives to reduce nephrotoxicity” (HOECHST AKTIENGESELLSCHAFT, priority 1989, dated 1991).

What was measured:
Mäuse = assay: Mortality of mice after repeated intravenous injections, 42-day observation; settings: 30 daily i.v. injections, 5 consecutive days per block, 4 blocks, 2 treatment-free days between, Amphotericin B 4 mg/kg, xanthine derivatives 20 mg/kg each, dissolved in 5 % aqueous glucose solution
[1] = Pathophysiological serum findings (nephrotoxicity markers) in mice after repeated intravenous treatment; type: in vivo, Mäuse; settings: serum of mice, treated 9 times intravenously within 11 days; pooled sera of 3 mice each; Pentoxifyllin 20 mg/kg, Amphotericin B 4 mg/kg
Protocol: Es wurden Mäuse im Verlauf von 11 Tagen 9 mal intravenös mit Pentoxifyllin (20 mg/kg), Amphotericin B (4 mg/kg) und Amphotericin B (4 mg/kg) in Kombination mit Pentoxifyllin (20 mg/kg) sowie mit einer Lösungsmittelkontrolle behandelt. Zur Beurteilung der Nephrotoxizität der jeweils verabreichten Substanzen wurden bei den Versuchstieren folgende Stoffe bestimmt: Creatinin: Eine gestörte Creatininclearance durch eine geschädigte Niere führt zu einem erhöhten Gehalt von Creatinin im Serum (Hypercreatininaemie) Harnstoff : Erhöhte Konzentrationen im Serum werden regelmäßig bei einer schweren Nierenfunktionsstörung beobachtet. Eine verminderte Harnstoffclearance führt zu einem erhöhten Gehalt im Serum Kalium: Da Kaliumionen bis zu 95 % durch die Nieren ausgeschieden werden, ist eine Hyperkaliaemie ein deutliches Zeichen für eine schwere Nierenfunktionsstörung. Tabelle 1

Nieren = assay: Histopathological examination of kidneys of intravenously treated mice (PAS staining); type: in vivo, Mäuse; settings: mice treated i.v. over 11, 25, 39 or 53 days; Pentoxifyllin 20 mg/kg, Amphotericin B 4 mg/kg; 4 animals per time point; compared with glucose solvent control
Protocol: Weiterhin läßt sich die nephrotoxizitätssenkende Wirkung der Xanthinderivate durch histologische Untersuchung von Versuchstieren feststellen.
Dazu wurden […] Mäuse mit Glukose, Pentoxifyllin (20 mg/kg), Amphotericin B (4 mg/kg) oder der Kombination von Pentoxifyllin/Amphotericin B (20 mg/kg bzw. 4 mg/kg) über einen Zeitraum von 11, 25, 39 oder 53 Tagen intravenös behandelt.
Nach den angegebenen Versuchszeiten wurden je 4 Tiere getötet und Serum für serologische Untersuchungen entnommen. Die Nieren wurden in Bouin'schem Gemisch fixiert, nach üblicher histologischer Technik aufgearbeitet und PAS-gefärbt.

Cn1c(=O)n(CCCCC(C)(C)O)c(=O)c2[nH]cnc21 [1-(5-Hydroxy-5-methyl-hexyl)-3-methylxanthin]
Mortalitäten nach einer Beobachtungszeit von 42 Tagen (Mäuse): 0 von 25 Mäusen gestorben

CCOCn1cnc2c1c(=O)n(CCCCC(C)(C)O)c(=O)n2C [7-Ethoxymethyl-1-(5-hydroxy-5-methylhexyl)-3-methyl-xanthin]
Mortalitäten nach einer Beobachtungszeit von 42 Tagen (Mäuse): 0 von 25 Mäusen gestorben

C[C@@H]1[C@H](O)[C@@H](C)/C=C/C=C/C=C/C=C/C=C/C=C/C=C/[C@H](O[C@@H]2O[C@H](C)[C@@H](O)[C@H](N)[C@@H]2O)C[C@@H]2O[C@](O)(C[C@@H](O)C[C@@H](O)[C@H](O)CC[C@@H](O)C[C@@H](O)CC(=O)O[C@H]1C)C[C@H](O)[C@H]2C(=O)O [Amphotericin B]
Creatinin [1]: 55 µmol/L | Harnstoff [1]: 10,5 mmol/l | Kalium [1]: 10,1 mmol/l | histopathologische Untersuchungen der Nieren (Nieren): erhebliche Schäden des tubulären Apparats | Mortalitäten nach einer Beobachtungszeit von 42 Tagen (Mäuse): 73 von 92 Mäusen gestorben

CC(=O)CCCCn1c(=O)c2c(ncn2C)n(C)c1=O [Pentoxifyllin, 3,7-Dimethyl-1-(5-oxohexyl)xanthin]
Mortalitäten nach einer Beobachtungszeit von 42 Tagen (Mäuse): 0 von 25 Mäusen gestorben
